Data from paper PMC9508125, “The evolutionary advantage of an aromatic clamp in plant family 3 glycoside exo-hydrolases” (Nature Communications, 2022).
Changes are numbered by the printed parent chain.

Experiments:
Assay in all cases: Steady-state apparent kinetic constants with substrates
Format in all cases: biochemical
Conditions in all cases: substance is the substrate
HvExoI W434F mutant = target: T1, HvExoI W434F mutant (Hordeum vulgare, UniProt Q9XEI3, W459F)
T1 sequence (Q9XEI3 26-630 W459F): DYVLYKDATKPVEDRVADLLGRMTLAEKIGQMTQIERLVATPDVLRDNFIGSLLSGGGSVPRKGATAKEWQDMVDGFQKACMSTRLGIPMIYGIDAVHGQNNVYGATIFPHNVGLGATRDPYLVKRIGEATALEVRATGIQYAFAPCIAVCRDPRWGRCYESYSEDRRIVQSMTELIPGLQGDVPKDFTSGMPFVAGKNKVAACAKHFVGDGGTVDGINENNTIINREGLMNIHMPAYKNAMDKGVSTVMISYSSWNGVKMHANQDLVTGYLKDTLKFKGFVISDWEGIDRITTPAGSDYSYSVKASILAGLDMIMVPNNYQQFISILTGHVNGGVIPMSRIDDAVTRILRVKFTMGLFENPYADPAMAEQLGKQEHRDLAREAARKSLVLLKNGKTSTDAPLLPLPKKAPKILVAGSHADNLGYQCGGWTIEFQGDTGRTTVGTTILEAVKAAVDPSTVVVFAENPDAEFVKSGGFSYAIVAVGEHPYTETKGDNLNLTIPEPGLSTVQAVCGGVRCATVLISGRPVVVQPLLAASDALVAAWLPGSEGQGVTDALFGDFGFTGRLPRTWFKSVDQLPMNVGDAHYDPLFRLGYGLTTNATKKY
Experimental: (§1) Dependency of activities of WT and mutant HvExoI on pH (McIlvaine buffers in the pH range of 3.5–8.5 at 30 °C) and temperature (100 mM sodium acetate buffer, pH 5.25, temperature range 0–80 °C, 15 min incubations) were determined using 0.2% (w/v) 4NP-Glc[21],[59]. Relative rates of hydrolysis of β-linked poly-, oligosaccharides, and aryl-glucosides were determined using near-homogenous HvExoI at 50 pmoles. […] Kinetic parameters were calculated from the analyses of Michaelis-Menten plots with Grafit 7.0.3[62] and processed by a proportional weighted fit, using nonlinear regression. The relative rates of hydrolysis, kinetic, and inhibition data were rounded to one or two decimal points (Supplementary Tables 2–4).

HvExoI W286F mutant = target: T2, HvExoI W286F mutant (Hordeum vulgare, UniProt Q9XEI3, W311F)
T2 sequence (Q9XEI3 26-630 W311F): T1 sequence (Q9XEI3 26-630 W459F) with W286F, F434W
Experimental: as §1

[1] = target: T3, HvExoI W286F/W434F mutant (Hordeum vulgare, UniProt Q9XEI3, W311F/W459F)
T3 sequence (Q9XEI3 26-630 W311F/W459F): T1 sequence (Q9XEI3 26-630 W459F) with W286F
Experimental: as §1

## laminarin
HvExoI W434F mutant
  Km: 200 ± 10 µM
  kcat: 8.0 ± 0.7 s⁻¹
HvExoI W286F mutant
  Km: 200 ± 10 µM
  kcat: 4.5 ± 0.3 s⁻¹
[1]
  kcat: 0.4 ± 0.1 s⁻¹
